This note sets out measurements from patent US20260115194A1, “NEW TREATMENTS FOR PAIN” (Sevenless Therapeutics Limited, priority 2023, published 2026).

Structures are written as SMILES.

The assay addresses T1, KRAS WT/SOS1 (Homo sapiens, UniProt Q07889).
T1 sequence (Q07889 1-1333): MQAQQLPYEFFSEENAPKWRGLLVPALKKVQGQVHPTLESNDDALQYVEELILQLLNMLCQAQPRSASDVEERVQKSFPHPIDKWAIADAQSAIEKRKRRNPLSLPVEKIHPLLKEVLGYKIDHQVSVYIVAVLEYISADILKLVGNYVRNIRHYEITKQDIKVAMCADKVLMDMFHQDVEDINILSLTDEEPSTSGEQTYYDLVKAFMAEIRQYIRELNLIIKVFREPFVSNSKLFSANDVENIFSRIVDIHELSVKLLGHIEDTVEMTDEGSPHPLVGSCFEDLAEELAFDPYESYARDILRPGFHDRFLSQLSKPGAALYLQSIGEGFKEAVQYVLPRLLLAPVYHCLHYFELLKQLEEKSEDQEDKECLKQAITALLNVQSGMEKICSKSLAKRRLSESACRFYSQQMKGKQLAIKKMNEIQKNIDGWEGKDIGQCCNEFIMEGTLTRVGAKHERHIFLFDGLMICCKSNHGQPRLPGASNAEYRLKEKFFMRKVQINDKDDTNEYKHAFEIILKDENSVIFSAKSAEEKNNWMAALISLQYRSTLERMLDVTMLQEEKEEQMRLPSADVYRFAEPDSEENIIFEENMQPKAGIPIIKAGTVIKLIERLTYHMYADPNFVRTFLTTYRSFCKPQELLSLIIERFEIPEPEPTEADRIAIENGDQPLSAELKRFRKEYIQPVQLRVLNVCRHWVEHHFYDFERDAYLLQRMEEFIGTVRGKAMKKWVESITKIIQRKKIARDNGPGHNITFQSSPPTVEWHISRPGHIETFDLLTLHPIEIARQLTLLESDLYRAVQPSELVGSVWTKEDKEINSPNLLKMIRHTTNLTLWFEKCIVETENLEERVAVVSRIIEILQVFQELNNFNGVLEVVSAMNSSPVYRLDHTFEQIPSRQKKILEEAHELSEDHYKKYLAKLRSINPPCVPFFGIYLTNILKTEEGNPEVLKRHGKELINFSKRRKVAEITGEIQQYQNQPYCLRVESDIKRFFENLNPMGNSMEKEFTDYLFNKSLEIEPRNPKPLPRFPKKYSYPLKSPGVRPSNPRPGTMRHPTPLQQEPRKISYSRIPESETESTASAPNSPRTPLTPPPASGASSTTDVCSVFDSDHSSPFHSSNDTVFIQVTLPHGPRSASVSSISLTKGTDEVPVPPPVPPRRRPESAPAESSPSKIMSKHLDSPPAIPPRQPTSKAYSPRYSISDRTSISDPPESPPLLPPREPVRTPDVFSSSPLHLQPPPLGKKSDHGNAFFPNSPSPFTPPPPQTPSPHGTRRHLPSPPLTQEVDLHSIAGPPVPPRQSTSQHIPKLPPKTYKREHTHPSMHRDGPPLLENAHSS
Put plainly: HTRF KRAS WT/SOS1 PPI kit (Cisbio) screen for SOS1 inhibitors. In kind it is binding. The settings on record: 10-point 1/2-log dilution from 10 μM, 60 minutes at room temperature. The method, then: Compounds were screened using an HTRF KRAS WT/SOS1 PPI kit provided by Cis bio, according to the manufacturer's instructions, with the modifications described below. All reagents were allowed to equilibrate to room temperature and diluted to working stock in Binding Domain Detection buffer (BDD buffer). Stock solutions were prepared by adding 1 part Tag1-KRAS WT/GTP to 1 part Tag2-SOS1 and 1 part BDD. Separately, 1 part Anti-Tag1 XL665 antibody premix was added to Anti-Tag2 Tb cryptate antibody premix. BI-3406 (Selleck Chemicals) was used as a standard, solubilised to 10 mM in DMSO. Test compounds were also solubilised to 10 mM in DMSO. […] Per well, 6 μL of Tag1-KRAS WT/GTP premix, 4 ul Tag2-SOS1 premix and 10 μl of Anti-Tag1 XL665 and Anti-Tag2 Tb cryptate antibodies were then added using a E1-ClipTip™ Electronic Adjustable Multichannel Equalizer Pipette. After the final addition, the plate was covered and placed in the benchtop incubator set at 22° C. The reaction was incubated for 60 minutes at room temperature, prior to reading using a Pherastar FSX plate reader.
(In general: Time-resolved FRET reads energy transfer from a long-lived donor to a nearby acceptor.)

In general, IC50 refers to the concentration that gives 50% inhibition. For the molecule `Cc1nc(N[C@H](C)c2cccc(C(F)F)c2F)c2cc(S(=O)(=O)N3CC4CC(C3)O4)ncc2n1` [Example 18, 6-((6-oxa-3-azabicyclo [3.1.1]heptan-3-yl)sulfonyl)-N—((R)-1-(3-(difluoromethyl)-2-fluorophenyl)ethyl)-2-methylpyrido[3,4-d] pyrimidin-4-amine], the IC50 was < 100 nM.
